Data: article PMC5601486, “Identification of 4-phenylquinolin-2(1H)-one as a specific allosteric inhibitor of Akt” (Scientific Reports, 2017)

Tests used:
DMPK = assay: KINOMEscan; settings: 50000 nM
Experimental: KINOMEscan™ selectivity screen
(§4) The assay was perfor med at DiscoveRx Corporation according the methods published previously5. Briefly, Kinase-tagged T7 phage strains were grown in parallel in an E. coli host derived from the BL21 strain. E. coli were grown to log-phase and infected with T7 phage from a frozen stock and incubated with shaking at 32°C until lysis (90-150 minutes). The kinases were produced in HEK-293 cells and subsequently tagged with DNA for qPCR detection. Streptavidin-coated magnetic beads were treated with biotinylated small molecule ligands to generate affinity resins for kinase
(§5) inhibitor or DMSO control was performed in polypropylene 384-well plates for 1 hr at room temperature. After wash with PBS buffer containing 0.05% Tween 20, the beads were incubated in elution buffer (PBS containing 0.05 % Tween 20 and 0.5 μM non-biotinylated affinity ligand) for 30 minutes at room temperature. The kinase concentration in the eluates was measured by qPCR.

NEK9 = assay: KINOMEscan; settings: 50000 nM
Experimental: KINOMEscan™ selectivity screen
as §4, §5

EPHB4 = assay: KINOMEscan; settings: 50000 nM
Experimental: KINOMEscan™ selectivity screen
(§6) Briefly, Kinase-tagged T7 phage strains were grown in parallel in an E. coli host derived from the BL21 strain. E. coli were grown to log-phase and infected with T7 phage from a frozen stock and incubated with shaking at 32°C until lysis (90-150 minutes). The kinases were produced in HEK-293 cells and subsequently tagged with DNA for qPCR detection. Streptavidin-coated magnetic beads were treated with biotinylated small molecule ligands to generate affinity resins for kinase
as §5

ARK5 = assay: KINOMEscan; settings: 50000 nM
Experimental: KINOMEscan™ selectivity screen
as §6, §5

CDKL2 = assay: KINOMEscan; settings: 50000 nM
Experimental: KINOMEscan™ selectivity screen
as §6, §5

[1] = tested on: ABL1(Y253F)-phosphorylated; assay: KINOMEscan; settings: 50000 nM
Experimental: KINOMEscan™ selectivity screen
as §4, §5

TLK1 = assay: KINOMEscan; settings: 50000 nM
Experimental: KINOMEscan™ selectivity screen
as §4, §5

STK33 = assay: KINOMEscan; settings: 50000 nM
Experimental: KINOMEscan™ selectivity screen
as §4, §5

PIK3CA(H1047Y) = assay: KINOMEscan; settings: 50000 nM
Experimental: KINOMEscan™ selectivity screen
as §4, §5

RET(M918T) = assay: KINOMEscan; settings: 50000 nM
Experimental: KINOMEscan™ selectivity screen
as §4, §5

ERK8 = assay: KINOMEscan; settings: 50000 nM
Experimental: KINOMEscan™ selectivity screen
as §4, §5

CDK5 = assay: KINOMEscan; settings: 50000 nM
Experimental: KINOMEscan™ selectivity screen
as §4, §5

PFCDPK1(P.falciparum) = tested on: T1, PFCDPK1(P.falciparum); assay: KINOMEscan; type: binding; settings: 50000 nM
T1 construct: purchased DiscoveRx KINOMEscan

CSNK1D = assay: KINOMEscan; settings: 50000 nM
Experimental: KINOMEscan™ selectivity screen
as §4, §5

TRKC = assay: KINOMEscan; settings: 50000 nM
Experimental: KINOMEscan™ selectivity screen
as §6, §5

SNARK = assay: KINOMEscan; settings: 50000 nM
Experimental: KINOMEscan™ selectivity screen
as §4, §5

PIP5K1A = assay: KINOMEscan; settings: 50000 nM
CDKL5 = assay: KINOMEscan; settings: 50000 nM
Experimental: KINOMEscan™ selectivity screen
as §6, §5

PAK1 = assay: KINOMEscan; settings: 50000 nM
Experimental: KINOMEscan™ selectivity screen
as §4, §5

FAK = assay: KINOMEscan; settings: 50000 nM
Experimental: KINOMEscan™ selectivity screen
as §4, §5

TAK1 = assay: KINOMEscan; settings: 50000 nM
Experimental: KINOMEscan™ selectivity screen
as §6, §5

TIE1 = assay: KINOMEscan; settings: 50000 nM
Experimental: KINOMEscan™ selectivity screen
The assay was perfor med at DiscoveRx Corporation according the methods published previously5. […] The kinases were produced in HEK-293 cells and subsequently tagged with DNA for qPCR detection. Streptavidin-coated magnetic beads were treated with biotinylated small molecule ligands to generate affinity resins for kinase
as §5

EPHA4 = assay: KINOMEscan; settings: 50000 nM
Experimental: KINOMEscan™ selectivity screen
as §6, §5

SGK1 = tested on: T2, SGK1; assay: ADP-Glo kinase assay; type: biochemical; settings: 50 µM
T2 construct: purchased Promega V2911
Experimental: (§1) Elisa Assay for phosphorylation of Akt
(§2) Neuro 2A cells in 48-well plates were incubated with the inhibitor for 30 minutes at 37°C followed by IGF stimulation for 30 min. Cells were lysed and subjected to Elisa assay using an Akt (S473) InstantOne Elisa kit (ThermoFisher Scientific, # 8586042-11) in accordance with manufacturer ’s instruction.
(§3) An ADP-GloTM kinase assay kit (Promega, # V9101) was used to measure the activity of PDK1 or SGK1 in accordance with the manufacturer’s instructions. For PDK1 assay, the reaction mixture included 5 µM ATP, 50 µM inhibitor, 100 ng recombinant PDK1 and 2 µg PDKtide substrate (Promega, #V2761) prior to the addition of the ADP-Glo reagents. For SGK1, 5 µM ATP, 50 µM inhibitor, 10 ng SGK1 and 1 µg Akt substrate peptide (Promega, #V2911) were used. Staurosporine at concentration between 0.4 and 4,000 nM or the SGK1 inhibitor GSK-650394 (Tocris Bioscience) between 7 and 2,000 nM were used as controls for PDK1 or SGK1 assay respectively. For PI3K assay, 50 µM ATP, 50 µM inhibitor, 100 ng recombinant PI3 kinase (SignalChem, Richmond, Canada, # P27-10H-05) and 1.5 mg/mL multilamellar phospholipid vesicles containing PC/PE/PS/PIP2 (at mass ratio of 1/0.5/0.2/0.1) were used. Inhibitor blanks as well as LY-294002 between 78 and […]

PDK1 = tested on: T3, PDK1; assay: ADP-Glo kinase assay; type: biochemical; settings: 50 µM
T3 construct: purchased Promega V2761
Experimental: as §1, §2, §3

RIPK5 = assay: KINOMEscan; settings: 50000 nM
Experimental: KINOMEscan™ selectivity screen
as §4, §5

MEK1 = assay: KINOMEscan; settings: 50000 nM
Experimental: KINOMEscan™ selectivity screen
as §6, §5

ZAK = assay: KINOMEscan; settings: 50000 nM
Experimental: KINOMEscan™ selectivity screen
as §6, §5

RIOK2 = assay: KINOMEscan; settings: 50000 nM
Experimental: KINOMEscan™ selectivity screen
as §4, §5

[2] = tested on: ABL1(F317L)-nonphosphorylated; assay: KINOMEscan; settings: 50000 nM
Experimental: KINOMEscan™ selectivity screen
as §4, §5

MYO3A = assay: KINOMEscan; settings: 50000 nM
Experimental: KINOMEscan™ selectivity screen
as §4, §5

PCTK1 = assay: KINOMEscan; settings: 50000 nM
Experimental: KINOMEscan™ selectivity screen
as §6, §5

CDK4-cyclinD1 = assay: KINOMEscan; settings: 50000 nM
Experimental: KINOMEscan™ selectivity screen
as §4, §5

DYRK1A = assay: KINOMEscan; settings: 50000 nM
Experimental: KINOMEscan™ selectivity screen
as §4, §5

ACVRL1 = assay: KINOMEscan; settings: 50000 nM
Experimental: KINOMEscan™ selectivity screen
as §4, §5

QSK = assay: KINOMEscan; settings: 50000 nM
Experimental: KINOMEscan™ selectivity screen
as §4, §5

FGFR1 = assay: KINOMEscan; settings: 50000 nM
Experimental: KINOMEscan™ selectivity screen
as §4, §5

Oc1cc(-c2ccccc2)c2ccccc2n1 [G7, 4-phenylquinolin-2(1H)-one]
Percent Control (DMPK): 100%
Percent Control (NEK9): 80%
Percent Control (EPHB4): 92%
Percent Control (ARK5): 59%
Percent Control (CDKL2): 69%
Percent Control [1]: 56%
Percent Control (TLK1): 59%
Percent Control (STK33): 100%
Percent Control (PIK3CA(H1047Y)): 100%
Percent Control (RET(M918T)): 70%
Percent Control (ERK8): 46%
Percent Control (CDK5): 75%
Percent Control (PFCDPK1(P.falciparum)): 83%
Percent Control (CSNK1D): 45%
Percent Control (TRKC): 61%
Percent Control (SNARK): 45%
Percent Control (PIP5K1A): 70%
Percent Control (CDKL5): 100%
Percent Control (PAK1): 82%
Percent Control (FAK): 93%
Percent Control (TAK1): 61%
Percent Control (TIE1): 84%
Percent Control (EPHA4): 93%
effect on SGK1 activity (SGK1): no effects
effect on PDK1 activity (PDK1): no effects
Percent Control (RIPK5): 73%
Percent Control (MEK1): 69%
Percent Control (ZAK): 100%
Percent Control (RIOK2): 83%
Percent Control [2]: 94%
Percent Control (MYO3A): 85%
Percent Control (PCTK1): 91%
Percent Control (CDK4-cyclinD1): 95%
Percent Control (DYRK1A): 54%
Percent Control (ACVRL1): 100%
Percent Control (QSK): 85%
Percent Control (FGFR1): 56%
